The record followed here is paper PMC9525908, “α-Crystallin chaperone mimetic drugs inhibit lens γ-crystallin aggregation: Potential role for cataract prevention” (The Journal of Biological Chemistry, 2022).

Common to all, as to assay type: biochemical
In one experiment the test system is bovine gamma crystallins. As to the kind of experiment: Screen: H2O2 and heat mediated aggregation of bovine gamma crystallins, turbidimetry at 600 nm. The note with it: bovine γ-crystallin-rich proteins, oxidant stress 24 h and/or thermal stress 72 °C 20 min. The protocol: For the initial screen, a microtiter plate assay was developed in which bovine crystallins (2 mg/ml of 50 mM K3PO4 buffer, pH 7.2 [buffer A]) were exposed to H2O2 at varying concentrations (1–50 mM) for 12 to 36 h, upon which turbidity developed (at 50 mM H2O2 concentration) in both β- and γ-crystallins (Fig. 1, A and B). […] This was determined by turbidimetry at 600 nm (Fig. 1C) and confirmed using visual assessment of solution transparency over a fine text as well as the presence of cloudy aggregates visible by dark field microscopy (Fig. 1D). The drug:protein stoichiometric ratio was about 5:1. The wavelength of 600 nm was chosen to minimize interference by colored compounds, many of which absorb below 500 nm (Fig. 1E).
Wells were filled with 90 μl calf γ-crystallin-rich protein solution (pool 4 at 2 mg/ml) followed by 0.5 to 5.0 μl of drug (all 10 mM stock solution in DMSO) as supplied by the manufacturer and 10 μl H2O2 (450 mM stock solution in water) and sealed with sticky Applied Biosystems MicroAmp Clear Adhesive films (Life Technologies). Control wells received DMSO only. […] In order to quantitate the impact of the drugs on aggregation, a fitness plot was created (Fig. 1 C) that allowed us to identify wells with enhanced/worsening versus suppressed crystallin aggregation. In addition, aggregation in each well was also visually assessed by two independent “blinded” readers for the ability to read fine print through each well by placing the plates over small font text (Fig. 1D). Both machine and visual readouts were reconciled in order to increase robustness.

The next experiment addresses T1, OPJ-MγS (Mus musculus, UniProt O35486, F10S).
T1 construct: made in house; host or cells: E. coli BL21(DE3) pLysS, pET17b vector
T1 sequence (O35486 1-178 F10S): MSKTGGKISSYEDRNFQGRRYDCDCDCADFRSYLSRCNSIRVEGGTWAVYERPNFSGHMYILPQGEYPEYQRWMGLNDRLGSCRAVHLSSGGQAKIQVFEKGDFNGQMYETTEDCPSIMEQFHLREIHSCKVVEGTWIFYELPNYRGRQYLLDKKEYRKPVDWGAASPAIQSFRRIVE
As to the kind of experiment: Thermal unfolding (Tm), OPJ-MγS. To be noted: 10 μM protein, 100 μM drug; for Tm (°C) OPJ-MGS N-ter: Con 48; for Tm (°C) OPJ-MGS C-ter: Con 63. The procedure:
(§1) Thermal denaturation study was monitored using fluorescence spectroscopy. Protein solutions (10 μM) in the presence and absence of drugs or bis-ANS (100 μM) were heated continuously from 30 to 95 °C, and the fluorescence data were collected every 5 °C after 1 min equilibration at the given temperature. Unfolding data were fit to Greene and Pace’s two-state model ([82]) using GraphPad Prism software (GraphPad Software, Inc).

For the next experiment, the target named is T2, W43R mutant of HγD (Homo sapiens, UniProt P07320, W43R).
T2 construct: made in house; host or cells: E. coli BL21(DE3) pLysS
T2 sequence (P07320 1-174 W43R): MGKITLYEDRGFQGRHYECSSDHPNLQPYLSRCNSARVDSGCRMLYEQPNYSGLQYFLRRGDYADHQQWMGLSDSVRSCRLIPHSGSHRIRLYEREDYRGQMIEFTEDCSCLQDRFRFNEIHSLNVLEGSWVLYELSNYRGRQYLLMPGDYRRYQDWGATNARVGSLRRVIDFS
In words: Kinetic turbidity assay at 42 °C of W43R mutant. To be noted: for Effect on aggregation of W43R mutant: 0–500 μM, 42 °C for 200 min, G at 400 and 500 μM; for inhibition at 500 µM: 500 μM drug, 42 °C, 200 min, read-out: Inhibition of aggregation (%) W43R. The procedure: (§2) Aggregation kinetics assays at 600 nm in the presence of varying concentrations (0, 100, 200, 300, 400, and 500 μM) of our selected drugs were also performed on mutants of HγD (W43R, W42Q, R14C, and R58H) and MγS (F9S) at a concentration of 1 mg/ml in 50 mM K3PO4 buffer (pH 7.2) in a total volume of 100 μl. WT-HγD and WT-MγS crystallin served as controls for their respective mutant versions. For W43R mutant, aggregation assay was done at 42 °C for a total of 200 min. Absorbance was monitored every 10 min. For R14C and R58H mutants, end-point turbidity assay was done at 72 °C for 20 min. […] All the experiments were run in duplicates or triplicates.

For the next experiment, the target named is T3, R58H mutant of HγD (Homo sapiens, UniProt P07320, R59H).
T3 construct: made in house; host or cells: E. coli BL21(DE3) pLysS
T3 sequence (P07320 1-174 R59H): T2 sequence (P07320 1-174 W43R) with R43W, R59H
As to the kind of experiment: End-point turbidity assay (72 °C, 20 min) of R58H mutant. To be noted: 500 μM drug, read-out: Inhibition of aggregation (%) R58H. The procedure: as §2

A further experiment addresses T4, WT-MγS (Mus musculus, UniProt O35486).
T4 construct: made in house; host or cells: E. coli BL21(DE3) pLysS, pET17b vector
T4 sequence (O35486 1-178): T1 sequence (O35486 1-178 F10S) with S10F
As to the kind of experiment: Thermal unfolding (Tm), WT-MγS. To be noted: 10 μM protein, 100 μM drug; Con 70. The procedure: as §1

Where a chain is given by its changes, count along the chain named.

In the case of `COC(=O)/C=C/C(C)=C\C=C\C(C)=C\C=C\C=C(C)\C=C\C=C(C)\C=C\C(=O)O` [drug B, Bixin], the Antiaggregation activity entry in the experiment on bovine gamma crystallins is recorded as “Medium heat shock inhibitor”.

With `Cc1cc(C(C#N)c2ccc(Cl)cc2)c(Cl)cc1NC(=O)c1cc(I)cc(I)c1O` (centres unmarked) [drug C, Closantel], at OPJ-MγS, the “Tm (°C) OPJ-MGS N-ter” value was 50 °C and the “Tm (°C) OPJ-MGS C-ter” value worked out at 69 °C. Moreover, at W43R mutant of HγD, the “Effect on aggregation of W43R mutant” value is reported as “worsened the aggregation” and the inhibition at 500 µM is -34%. Further, at R58H mutant of HγD, the inhibition at 500 µM amounted to 55%. In addition, the Antiaggregation activity result in the experiment with bovine gamma crystallins is on record as “Medium strong dual inhibitor”. In addition, the “Tm (°C) WT-MGS” value on WT-MγS was found to be 72 °C.

Regarding `CC(C)=CCCC1(C)C=Cc2c(O)c3c(c(CC=C(C)C)c2O1)OC12C(=CC4CC1C(C)(C)OC2(C/C=C(/C)C(=O)O)C4O)C3=O` (centres unmarked) [drug D, dihydrogambogic acid], the Antiaggregation activity result in the experiment with bovine gamma crystallins is “Strong heat shock inhibitor”.

As to `CC(C)=CCC[C@]1(C)C=Cc2c(O)c3c(c(CC=C(C)C)c2O1)O[C@]12C(=C[C@@H]4C[C@H]1C(C)(C)O[C@@]2(C/C=C(/C)C(=O)O)C4=O)C3=O` [drug G, Gambogic acid], at OPJ-MγS, the “Tm (°C) OPJ-MGS N-ter” value is 50 °C and the “Tm (°C) OPJ-MGS C-ter” value was 70 °C. Also, on W43R mutant of HγD, the “Effect on aggregation of W43R mutant” value is on record as “protected the mutant against aggregation” and the inhibition at 500 µM came out at 52%. Besides, the inhibition at 500 µM at R58H mutant of HγD is 83%. Besides, the Antiaggregation activity entry in the experiment with bovine gamma crystallins was “Strong heat shock inhibitor”. Besides, at WT-MγS, the “Tm (°C) WT-MGS” value was 73 °C.

On to `O=C(O)CCCCCCCCCCCC[C@@H]1C=CCC1` [drug M, Chaulmoogric acid], for which, on OPJ-MγS, the “Tm (°C) OPJ-MGS N-ter” value amounted to 48 °C and the “Tm (°C) OPJ-MGS C-ter” value was 63 °C. Besides, on W43R mutant of HγD, the “Effect on aggregation of W43R mutant” value was “no effect” and the inhibition at 500 µM was determined as 14%. Besides, the inhibition at 500 µM on R58H mutant of HγD worked out at 44%. In addition, the Antiaggregation activity result with bovine gamma crystallins is “Dual heat shock inhibitor + antioxidant”. Besides, on WT-MγS, the “Tm (°C) WT-MGS” value came to 68 °C.

One may read the inhibition as the drop in the measured response relative to a control, in per cent.
